# According to patent publication US20240228458A1, “PYRIMIDINE DERIVATIVE HAVING PROTEIN KINASE INHIBITORY ACTIVITY, AND THERAPEUTIC PHARMACEUTICAL COMPOSITION COMPRISING SAME” (THERAPEX CO., LTD., priority 2021, published 2024):
# Experiments:
# Format in all cases: cell-based
# [1] = test system: Ba/F3 cells expressing EGFR-wt; assay: Growth inhibition (GI50) of Ba/F3 cells expressing EGFR-wt, Celltiter glo; conditions: Mus musculus, BaF3, 72 h
# In short: (§1)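 Viable-cell luminescence (CellTiter-Glo) after 72 h compound exposure at 37 °C, 5% CO2 gave GI50 (μM, 50% growth inhibition). Compounds were 4-fold serial dilutions, 10 points, from a 2 mM stock, 0.5% DMSO, added 4 h after plating EGFR-variant Ba/F3 cells at 100,000 cells/ml.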
# [2] = test system: Ba/F3 cells expressing del19/T790M/C797S (EGFR-DTC); assay: Growth inhibition (GI50) of Ba/F3 cells expressing del19/T790M/C797S (EGFR-DTC), Celltiter glo; conditions: Mus musculus, BaF3, 72 h
# In short: as §1
# [3] = test system: Ba/F3 cells expressing L858R/T790M/C797S (EGFR-LTC); assay: Growth inhibition (GI50) of Ba/F3 cells expressing L858R/T790M/C797S (EGFR-LTC), Celltiter glo; conditions: Mus musculus, BaF3, 72 h
# In short: as §1
# [4] = test system: Ba/F3 cells expressing del19/T790M (EGFR-DT); assay: Growth inhibition (GI50) of Ba/F3 cells expressing del19/T790M (EGFR-DT), Celltiter glo; conditions: Mus musculus, BaF3, 72 h
# Method: (§2) In this experimental example, a determination was made as to whether the compounds prepared in Examples 1-283 have the ability to inhibit the growth of Ba/F3 cells expressing EGFR-wt, del19/T790M/C797S (EGFR-DTC), L858R/T790M/C797S (EGFR-LTC), del19/T790M (EGFR-DT), and L858R/T790M (EGFR-LT) variants.
# (§3) The parental Ba/F3 cell line is a population of cells that are not introduced with EGFR variants. Specifically, 100 μl of a cell line expressing each variant was plated in a 96-well plate at a density of 100,000 cells/ml. 10-point, 4-fold serial dilutions of each compound were prepared, starting at 2 mM. After 4 h, 0.5 μl of the compound (0.5% DMSO) was added, followed by incubation at 37° C. and 5% CO2 for 72 h. After incubation, the number of viable cells was measured using a Celltiter glo assay kit (Promega) and the GI50 of the compound was determined. The term “GI50” refers to the molar concentration (μM) of the compound required for 50% growth inhibition of cells.
# [5] = test system: Ba/F3 cells expressing L858R/T790M (EGFR-LT); assay: Growth inhibition (GI50) of Ba/F3 cells expressing L858R/T790M (EGFR-LT), Celltiter glo; conditions: Mus musculus, BaF3, 72 h
# Method: as §2, §3
# parental Ba/F3 cell line = assay: Growth inhibition (GI50) of the parental Ba/F3 cell line (not introduced with EGFR variants), Celltiter glo; conditions: Mus musculus, BaF3, 72 h, parental Ba/F3 cells
# In short: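 Parental Ba/F3 cells (100,000 cells/ml) were treated with 10-point, 4-fold compound dilutions (0.5% DMSO; top stock 2 mM) for 72 h at 37 °C, 5% CO2. Viability was read by CellTiter-Glo; GI50 is the concentration (μM) giving 50% growth inhibition.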
GI50 [1] [nM],GI50 [2] [nM],GI50 [3] [nM],GI50 [4] [nM],GI50 [5] [nM],Compound,GI50 (parental Ba/F3 cell line) [nM]
500 to 2000,500 to 2000,500 to 2000,500 to 2000,500 to 2000,COc1nc(N2CCS(=O)(=O)CC2)ccc1Nc1ncc(Cl)c(Nc2ccccc2NS(C)(=O)=O)n1 [Example 6],> 10000
500 to 2000,100 to 500,100 to 500,1 to 25,100 to 500,"COc1nc(N2CCC(N3CCN(C)CC3)CC2)c(C)cc1Nc1ncc(Cl)c(Nc2ccc(F)cc2NS(C)(=O)=O)n1 [Example 15, N-(2-((5-chloro-2-((2-methoxy-5-methyl-6-(4-(4-methylpiperazin-1-yl)piperidin-1-yl)pyridin-3-yl)amino)pyrimidin-4-yl)amino)-5-fluorophenyl)methanesulfonamide]",500 to 2000
25 to 100,500 to 2000,500 to 2000,500 to 2000,500 to 2000,COc1nc(N2CCN(CCO)CC2)ccc1Nc1ncc(Cl)c(Nc2ccc(F)cc2NS(C)(=O)=O)n1 [Example 18],100 to 500
500 to 2000,500 to 2000,500 to 2000,500 to 2000,500 to 2000,"COc1nc(N2CCN(C(C)=O)CC2)ccc1Nc1ncc(Cl)c(Nc2ccc(F)cc2NS(C)(=O)=O)n1 [Example 19, N-(2-((2-((6-(4-acetylpiperazin-1-yl)-2-methoxypyridin-3-yl)amino)-5-chloropyrimidin-4-yl)amino)-5-fluorophenyl)methanesulfonamide]",2000 to 10000
2000 to 10000,500 to 2000,500 to 2000,500 to 2000,500 to 2000,"COc1nc(N2C[C@@H](C)N(C)[C@@H](C)C2)ccc1Nc1ncc(Cl)c(Nc2ccc(F)cc2NS(C)(=O)=O)n1 [Example 20, N-(2-((5-chloro-2-((2-methoxy-6-((3S,5R)-3,4,5-trimethylpiperazin-1-yl)pyridin-3-yl)amino)pyrimidin-4-yl)amino)-5-fluorophenyl)methanesulfonamide]",2000 to 10000
2000 to 10000,500 to 2000,500 to 2000,500 to 2000,2000 to 10000,"COc1nc(N2CCC(O)CC2)ccc1Nc1ncc(Cl)c(Nc2ccc(F)cc2NS(C)(=O)=O)n1 [Example 21, N-(2-((5-chloro-((6-(4-hydroxypiperidin-1-yl)-2-methoxypyridin-3-yl)amino)pyrimidin-4-yl)amino)-5-fluorophenyl)methanesulfonamide]",> 10000
2000 to 10000,500 to 2000,500 to 2000,25 to 100,2000 to 10000,"COc1nc(N2CCN(C3COC3)CC2)ccc1Nc1ncc(Cl)c(Nc2ccc(F)cc2NS(C)(=O)=O)n1 [Example 22, N-(2-((5-chloro-2-((2-methoxy-6-(4-(oxetan-3-yl)piperazin-1-yl)pyridin-3-yl)amino)pyrimidin-4-yl)amino)-5-fluorophenyl)methanesulfonamide]",500 to 2000
100 to 500,100 to 500,100 to 500,100 to 500,500 to 2000,"COc1nc(N2CCC(N(C)C)C2)ccc1Nc1ncc(Cl)c(Nc2ccc(F)cc2NS(C)(=O)=O)n1 (stereo not drawn) [Example 23, N-(2-((5-chloro-2-((6-(3-(dimethylamino)pyrrolidin-1-yl)-2-methoxypyridin-3-yl)amino)pyrimidin-4-yl)amino)-5-fluorophenyl)methanesulfonamide]",100 to 500
2000 to 10000,500 to 2000,,500 to 2000,2000 to 10000,"COc1nc(N2CCC(N3CCN(C)CC3)CC2)ccc1Nc1ncc(Cl)c(N(c2ccc3scnc3c2NS(C)(=O)=O)S(C)(=O)=O)n1 [Example 111, N-(5-chloro-2-((2-methoxy-6-(4-(4-methylpiperazin-1-yl)piperidin-1-yl)pyridin-3-yl)amino)pyrimidin-4-yl)-N-(4-(methylsulfonamido)benzo[d]thiazol-5-yl)methanesulfonamide]",2000 to 10000
500 to 2000,100 to 500,100 to 500,,,"COc1cc(N2CCC(N3CCN(C)CC3)CC2)c(Cl)cc1Nc1ncc(Cl)c(Nc2cc(C(F)(F)F)ccc2NS(C)(=O)=O)n1 [Example 137, N-(2-((5-chloro-2-((5-chloro-2-methoxy-4-(4-(4-methylpiperazin-1-yl)piperidin-1-yl)phenyl)amino)pyrimidin-4-yl)amino)-4-(trifluoromethyl)phenyl)methanesulfonamide]",2000 to 10000
2000 to 10000,100 to 500,100 to 500,,,"COc1cc(N2CCC(N3CCN(C)CC3)CC2)c(C)cc1Nc1ncc(Cl)c(Nc2cc(C(F)(F)F)ccc2NS(C)(=O)=O)n1 [Example 138, N-(2-((5-chloro-2-((2-methoxy-5-methyl-4-(4-(4-methylpiperazin-1-yl)piperidin-1-yl)phenyl)amino)pyrimidin-4-yl)amino)-4-(trifluoromethyl)phenyl)methanesulfonamide]",500 to 2000
2000 to 10000,500 to 2000,500 to 2000,,,"COc1cc(N2CCC(N3CCN(C4CC4)CC3)CC2)c(C)cc1Nc1ncc(Cl)c(Nc2cc(C(F)(F)F)ccc2NS(C)(=O)=O)n1 [Example 139, N-(2-((5-chloro-2-((4-(4-(4-cyclopropylpiperazin-1-yl)piperidin-1-yl)-2-methoxy-5-methylphenyl)amino)pyrimidin-4-yl)amino)-4-(trifluoromethyl)phenyl)methanesulfonamide]",500 to 2000
500 to 2000,500 to 2000,500 to 2000,,,"COc1cc(N2CCC(N3CCN(C)CC3)CC2)c(C)cc1Nc1nc(N)c(Cl)c(Nc2ccc(F)cc2NS(C)(=O)=O)n1 [Example 141, N-(2-((6-amino-5-chloro-2-((2-methoxy-5-methyl-4-(4-(4-methylpiperazin-1-yl)piperidin-1-yl)phenyl)amino)pyrimidin-4-yl)amino)-5-fluorophenyl)methanesulfonamide]",> 10000
2000 to 10000,100 to 500,100 to 500,,,"COc1nc(C2CCCN(C)CC2)ccc1Nc1ncc(Br)c(Nc2ccc(F)cc2NS(C)(=O)=O)n1 (stereo not drawn) [Example 145, N-(2-((5-bromo-2-((2-methoxy-6-(1-methylazepan-4-yl)pyridin-3-yl)amino)pyrimidin-4-yl)amino)-5-fluorophenyl)methanesulfonamide]",2000 to 10000
500 to 2000,100 to 500,100 to 500,,,"COc1cc(N2CCC(N3CCN(C)CC3)CC2)c(F)cc1Nc1ncc(Br)c(Nc2ccc(F)cc2NS(C)(=O)=O)n1 [Example 146, N-(2-((5-bromo-2-((5-fluoro-2-methoxy-4-(4-(4-methylpiperazin-1-yl)piperidin-1-yl)phenyl)amino)pyrimidin-4-yl)amino)-5-fluorophenyl)methanesulfonamide]",2000 to 10000
100 to 500,1 to 25,1 to 25,1 to 25,1 to 25,"COc1cc(N2CCC(N3CCN(C)CC3)CC2)c(Cl)cc1Nc1ncc(Cl)c(Nc2cc(Cl)ccc2NS(C)(=O)=O)n1 [Example 151, N-(4-chloro-2-((5-chloro-2-((5-chloro-2-methoxy-4-(4-(4-methylpiperazin-1-yl)piperidin-1-yl)phenyl)amino)pyrimidin-4-yl)amino)phenyl)methanesulfonamide]",
100 to 500,1 to 25,1 to 25,,,COc1cc(N2CCC(N3CCN(C)CC3)CC2)c(C)cc1Nc1ncc(Cl)c(Nc2cc(Cl)ccc2-c2c[nH]nn2)n1 [Example 166],500 to 2000
500 to 2000,500 to 2000,25 to 100,,,Cc1cc(Nc2ncc(Cl)c(Nc3cc(Cl)ccc3-c3cnn[nH]3)n2)c(Cl)cc1N1CCC(N2CCN(C)CC2)CC1 [Example 185],500 to 2000
25 to 100,25 to 100,25 to 100,,,COc1cc(N2CCC(N3CCN(C)CC3)CC2)c(Cl)cc1Nc1ncc(Cl)c(Nc2cc(Cl)ccc2-c2cnn[nH]2)n1 [Example 186],100 to 500
100 to 500,25 to 100,25 to 100,,,COc1cc(N2CCC(N3CCN(C)CC3)CC2)c(C)cc1Nc1ncc(Br)c(Nc2cc(Cl)ccc2-c2cnn[nH]2)n1 [Example 187],500 to 2000
100 to 500,25 to 100,25 to 100,,,COc1cc(N2CCC(N3CCN(C)CC3)CC2)c(Cl)cc1Nc1ncc(Br)c(Nc2cc(Cl)ccc2-c2cnn[nH]2)n1 [Example 195],100 to 500
